Where no end group is shown, it is not given here.
molecular target: HLA DRB1 *0101 (Homo sapiens, UniProt P01903+P01911, A100R/D57E/F55L/F60I/F76Y/I96L/L162R/M171V/P40L/Q125E/R42F/V115G/Y59C); experiment: IC50nM to purified HLA | DRB1 *0101
Description: (§1) Table printed on a drawing sheet, FIG. 1 (contd.)
Head of the field: IC50nM to purified HLA | DRB1 *0101
(§2) First copying reader's note: Continued from an earlier sheet of FIG. 1; decimal commas as printed, analog names encode substituted residues and positions, and some values are printed in italics or bold and some SEQ ID NOs underlined without a legend on this sheet.
Where the first naming reader finds the target: head: IC50nM to purified HLA | DRB1 *0101

Sequence	IC50 [nM]
AAAQFVAAWTLKAAA [SEQ ID NO: 63]	5.1
AAANFVAAFTLHAAA [SEQ ID NO: 53]	4.7

molecular target: HLA DRB1 *0301 (Homo sapiens, UniProt P01903+P01911, A100K/A102G/A103R/A169T/F55Y/I96L/K41T/L162R/M171V/P40S/Q125H/Q178H/Q39Y/R42S/S66N/T106N/T262R/W38E/Y61H); experiment: IC50nM to purified HLA | DRB1 *0301
Description: as §1
Head of the field: IC50nM to purified HLA | DRB1 *0301
as §2
Where the first naming reader finds the target: head: IC50nM to purified HLA | DRB1 *0301

Sequence of HLA DRB1 *0301 (P01903 26-254 limits assumed, other chains not shown): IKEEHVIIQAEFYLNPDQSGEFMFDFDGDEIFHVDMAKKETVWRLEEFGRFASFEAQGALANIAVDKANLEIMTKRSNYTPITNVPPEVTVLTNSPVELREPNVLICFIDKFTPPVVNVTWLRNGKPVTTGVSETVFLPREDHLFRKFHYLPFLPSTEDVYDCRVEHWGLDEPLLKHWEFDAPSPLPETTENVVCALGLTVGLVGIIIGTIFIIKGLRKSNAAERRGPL

Sequence	IC50 [nM]
AAANFVAAYTLKADA [SEQ ID NO: 56]	1530
AAAQFVAANTLHAAA [SEQ ID NO: 67]	319
AAANFVAANTLKAEA [SEQ ID NO: 62]	1740
AAAQFVAAWTLHAAA [SEQ ID NO: 64]	187
AAANFVAAYTLKAEA [SEQ ID NO: 60]	1070
AAAQFVAAWTLKAAA [SEQ ID NO: 63]	271
AAANFVAAFTLHAAA [SEQ ID NO: 53]	254

molecular target: HLA DRB1 *0401 (Homo sapiens, UniProt P01903+P01911, A100K/A169T/F76Y/I96L/K127E/L162R/M171V/N62H/P40V/Q125Y/R42H/S133A/S149N/S66Y/V115G/V209L/W38E); experiment: IC50nM to purified HLA | DRB1 *0401
Description: as §1
Head of the field: IC50nM to purified HLA | DRB1 *0401
as §2
Where the first naming reader finds the target: head: IC50nM to purified HLA | DRB1 *0401

Sequence	IC50 [nM]
AAANFVAANTLKADA [SEQ ID NO: 58]	9.7
AAAQFVAAFTLHAAA [SEQ ID NO: 66]	2.7
AAANFVAAYTLKADA [SEQ ID NO: 56]	6.3
AAAQFVAANTLHAAA [SEQ ID NO: 67]	3.3
AAANFVAAYTLKAEA [SEQ ID NO: 60]	13
AAAQFVAAWTLKAAA [SEQ ID NO: 63]	1.6
AAANFVAAFTLHAAA [SEQ ID NO: 53]	1.6

molecular target: HLA DRB1 *0405 (Homo sapiens, UniProt P01903+P01911, A100R/A169T/D86S/F76Y/I96L/K127E/L162R/M171V/N62H/P40V/Q125Y/R42H/S133A/S149N/S66Y/V115G/V209L/W38E); experiment: IC50nM to purified HLA | DRB1 *0405
Description: as §1
Head of the field: IC50nM to purified HLA | DRB1 *0405
as §2
Where the first naming reader finds the target: head: IC50nM to purified HLA | DRB1 *0405

Sequence	IC50 [nM]
AAAQFVAAFTLHAAA [SEQ ID NO: 66]	7.7
AAAQFVAAWTLHAAA [SEQ ID NO: 64]	13
AAAQFVAAWTLKAAA [SEQ ID NO: 63]	21
AAANFVAAFTLHAAA [SEQ ID NO: 53]	12

molecular target: HLA DRB1 *0701 (Homo sapiens, UniProt P01903+P01911, A100R/A102G/A103Q/D57E/D86V/E43K/F76Y/K127E/L162R/M171V/P40G/Q125H/Q99D/R33Q/R42Y/R54Q/S133A/S66F/T210M/V115G/Y107V/Y59L/Y89S); experiment: IC50nM to purified HLA | DRB1 *0701
Description: as §1
Head of the field: IC50nM to purified HLA | DRB1 *0701
as §2
Where the first naming reader finds the target: head: IC50nM to purified HLA | DRB1 *0701

Sequence	IC50 [nM]
AAAQFVAANTLHAAA [SEQ ID NO: 67]	76
AAANFVAANTLKAEA [SEQ ID NO: 62]	107
AAANFVAAFTLHAAA [SEQ ID NO: 53]	52

molecular target: HLA DRB1 *0802 (Homo sapiens, UniProt P01903+P01911, A100R/A103L/A169T/F76Y/H45Y/I96F/K41T/L162R/M171V/P40S/Q125H/Q178H/Q39Y/Q99D/R218S/R42G/S66Y/V115G/W38E); experiment: IC50nM to purified HLA | DRB1 *0802
Description: as §1
Head of the field: IC50nM to purified HLA | DRB1 *0802
as §2
Where the first naming reader finds the target: head: IC50nM to purified HLA | DRB1 *0802

Sequence	IC50 [nM]
AAAQFVAAFTLHAAA [SEQ ID NO: 66]	13
AAANFVAAYTLKADA [SEQ ID NO: 56]	22
AAAQFVAANTLHAAA [SEQ ID NO: 67]	24
AAANFVAAYTLKAEA [SEQ ID NO: 60]	21
AAANFVAAFTLHAAA [SEQ ID NO: 53]	12

molecular target: HLA DRB1 *0901 (Homo sapiens, UniProt P01903+P01911, A100R/A103E/D57H/D86V/F55Y/F60I/F76Y/I96F/K127E/L162R/M171V/P40D/Q125H/Q99R/R33Q/R42F/S133A/S66N/T210M/V115G/W38K/Y107V/Y59G/Y89S); experiment: IC50nM to purified HLA | DRB1 *0901
Description: as §1
Head of the field: IC50nM to purified HLA | DRB1 *0901
as §2
Where the first naming reader finds the target: head: IC50nM to purified HLA | DRB1 *0901

Sequence	IC50 [nM]
AAANFVAANTLKADA [SEQ ID NO: 58]	109
AAAQFVAAFTLHAAA [SEQ ID NO: 66]	31
AAANFVAAYTLKADA [SEQ ID NO: 56]	44
AAANFVAAYTLKAEA [SEQ ID NO: 60]	43
AAANFVAAFTLHAAA [SEQ ID NO: 53]	41

molecular target: HLA DRB4 *0101 (Homo sapiens, UniProt P01903+P13762, G164S); experiment: IC50nM to purified HLA | DRB4 *0101
Description: as §1
Head of the field: IC50nM to purified HLA | DRB4 *0101
as §2
Where the first naming reader finds the target: head: IC50nM to purified HLA | DRB4 *0101

Sequence of HLA DRB4 *0101 (P01903 26-254 limits assumed): as the sequence (P01903 26-254 limits assumed, other chains not shown) above
Sequence of HLA DRB4 *0101 (P13762 whole entry G164S): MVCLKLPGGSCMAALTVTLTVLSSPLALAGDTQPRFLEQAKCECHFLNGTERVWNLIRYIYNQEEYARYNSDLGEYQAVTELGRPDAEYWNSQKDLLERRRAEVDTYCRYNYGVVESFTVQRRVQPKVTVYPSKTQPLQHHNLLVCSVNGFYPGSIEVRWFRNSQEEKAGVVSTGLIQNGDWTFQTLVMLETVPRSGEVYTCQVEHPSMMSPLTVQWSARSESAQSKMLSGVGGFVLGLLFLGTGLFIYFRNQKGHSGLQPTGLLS

Sequence	IC50 [nM]
AAANFVAANTLKADA [SEQ ID NO: 58]	6320
AAAQFVAAFTLHAAA [SEQ ID NO: 66]	97
AAANFVAANTLKAEA [SEQ ID NO: 62]	964
AAANFVAAYTLKAEA [SEQ ID NO: 60]	718
AAAQFVAAWTLKAAA [SEQ ID NO: 63]	259
AAANFVAAFTLHAAA [SEQ ID NO: 53]	111

molecular target: HLA DRB1 *1302 (Homo sapiens, UniProt P01903+P01911, A100E/A169T/K41T/L162R/M171V/P40S/Q125H/Q178H/Q39Y/Q99D/R42S/S66N/T262R/V115G/W38E/Y61H); experiment: IC50nM to purified HLA | DRB1 *1302
Description: as §1
Head of the field: IC50nM to purified HLA | DRB1 *1302
as §2
Where the first naming reader finds the target: head: IC50nM to purified HLA | DRB1 *1302

Sequence of HLA DRB1 *1302 (P01903 26-254 limits assumed, other chains not shown): as the sequence (P01903 26-254 limits assumed, other chains not shown) above

Sequence	IC50 [nM]
AAANFVAANTLKADA [SEQ ID NO: 58]	269
AAANFVAAYTLKADA [SEQ ID NO: 56]	819
AAAQFVAAWTLHAAA [SEQ ID NO: 64]	1120
AAANFVAAYTLKAEA [SEQ ID NO: 60]	590

molecular target: HLA DRB1 *1501 (Homo sapiens, UniProt P01903+P01911); experiment: IC50nM to purified HLA | DRB1 *1501
Description: as §1
Head of the field: IC50nM to purified HLA | DRB1 *1501
as §2
Where the first naming reader finds the target: head: IC50nM to purified HLA | DRB1 *1501

Sequence	IC50 [nM]
AAANFVAANTLKADA [SEQ ID NO: 58]	296
AAANFVAAYTLKADA [SEQ ID NO: 56]	12
AAAQFVAANTLHAAA [SEQ ID NO: 67]	78
AAAQFVAAWTLHAAA [SEQ ID NO: 64]	13
AAANFVAAYTLKAEA [SEQ ID NO: 60]	11
AAAQFVAAWTLKAAA [SEQ ID NO: 63]	17

molecular target: HLA DRB5 *0101 (Homo sapiens, UniProt P01903+Q30154); experiment: IC50nM to purified HLA | DRB5 *0101
Description: as §1
Head of the field: IC50nM to purified HLA | DRB5 *0101
as §2
Where the first naming reader finds the target: head: IC50nM to purified HLA | DRB5 *0101

Sequence	IC50 [nM]
AAANFVAANTLKAEA [SEQ ID NO: 62]	34
AAAQFVAAWTLKAAA [SEQ ID NO: 63]	5.2

molecular target: HLA DRB1 *0404 (Homo sapiens, UniProt P01903+P01911, A100R/A169T/F76Y/I96L/K127E/L162R/M171V/N62H/P40V/Q125Y/R42H/S133A/S149N/S66Y/V209L/W38E); experiment: IC50nM to purified HLA | DRB1 *0404
Description: as §1
Head of the field: IC50nM to purified HLA | DRB1 *0404
as §2
Where the first naming reader finds the target: head: IC50nM to purified HLA | DRB1 *0404

Sequence	IC50 [nM]
AAAQFVAAFTLHAAA [SEQ ID NO: 66]	4.4
AAANFVAAYTLKADA [SEQ ID NO: 56]	15
AAANFVAANTLKAEA [SEQ ID NO: 62]	11
AAANFVAAYTLKAEA [SEQ ID NO: 60]	6.1

molecular target: HLA DRB1 *1101 (Homo sapiens, UniProt P01903+P01911, A100R/A169T/A87E/I96F/K41T/L162R/M171V/P40S/Q125H/Q178H/Q39Y/Q99D/R42S/S66Y/T262R/V115G/W38E); experiment: IC50nM to purified HLA | DRB1 *1101
Description: as §1
Head of the field: IC50nM to purified HLA | DRB1 *1101
as §2
Where the first naming reader finds the target: head: IC50nM to purified HLA | DRB1 *1101

Sequence of HLA DRB1 *1101 (P01903 26-254 limits assumed, other chains not shown): as above

Sequence	IC50 [nM]
AAANFVAAYTLKADA [SEQ ID NO: 56]	100
AAAQFVAANTLHAAA [SEQ ID NO: 67]	44
AAANFVAANTLKAEA [SEQ ID NO: 62]	78
AAAQFVAAWTLKAAA [SEQ ID NO: 63]	12

Reference: patent publication US9789181B2, “PAN-DR binding polypeptides and uses thereof” (Epimmune Inc., priority 2009, dated 2017)
